Measurements from patent US20240182422A1, “PREPARATION METHOD OF QUINOLINE DERIVATIVE COMPOUNDS” (ABIVAX, priority 2021, published 2024).

How the values were obtained:
[1] = USP <711> / Ph. Eur. 2.9.3 pharmacopeial dissolution profile (apparent dissolution test, paddle apparatus); assay type: physicochemical; conditions: for solubility (percentage dissolved) at 45 min: 50 mg drug substance, 900 mL 0.25% CTAB in 0.1 M HCl, paddle USP type II 100 rpm
Description: Pharmacopeial (USP <711>, Ph. Eur. 2.9.3) dissolution profiles of the drug substance were established.
A dissolution experiment evaluates the rate and extent that a compound forms a solution under carefully controlled conditions and using paddle dissolution apparatus fulfilling USP <711>, Ph. Eur. 2.9.3 requirements.
The dissolution profiles of 50 mg from a native ABX464 and one milled ABX 464 (8000 rpm) drug substance (DS) in the dissolution media have been compared.
The dissolution conditions and materials were as follows: • Equipment • Class A glassware • Analytical scale • Automatic pipette • UPLC system consisting of a binary or quaternary pump, an automated injector, a thermostated column oven, and a UV or DAD detector controlled by the Waters Empower® software • AT 7 smart (Sotax) or equivalent dissolution apparatus with USP type II paddle • Chemicals • water (dissolution medium) Demineralized water purified by Milli_Q Millipore (type II) • Demineralized water purified by Milli_Q Millipore • syringe filter Spartan 30 mm HPLC-Certified syringe Filter, 0.2 μm, RC (regenerated cellulose) • Acetonitrile Biosolve (UPLC grade) (ACN) • Cetyl trimethylammonium bromide (CTAB) • Hydrochloric acid (HCl) 1M (AVS tritinorm) • Formic acid (LCMS grade) • Chromatographic conditions • Column: Acquity UPLC BEH C18, 2.1 mm ID*50 mm, 1.7 μm pore size or equivalent • Mobile phase A: 0.1% (v/v) Formic acid in water • Mobile phase B: ACN • Isocratic mode 35% A/65% B • Flow rate 0.3 mL/min • Analytical run time: 5 min • Volume injection: 5 μL • Detection: UV at 220 nm • Autosampler: room temperature • Column temperature: 40° C. • Needle wash: Water/ACN (50/50 v/v) • Diluent • Dissolution medium: 0.25% CTAB in 0.1 M HCl. Transfer 25 g of CTAB into a 10 000 mL volumetric flask, add 1 000 mL of HCl 1M and dilute to volume with water (different amounts and volumes may be used as long as the final concentration remains the same) • Solutions
Accurately weight 22.2 mg of the drug substance into a 100 mL volumetric flask, dissolve in about 5 mL ACN and dilute to volume with diluent. • Dissolution conditions • Dissolution medium: 0.25% CTAB in 0.1 M HCl • Temperature: 37° C. +/−0.5° C. • Agitation: 100 rpm +/−1 rpm • Type of agitation: Paddle (USP type II) • Volume of dissolution medium: 900 mL • Sampling time: 5, 10, 15, 30, 45, 60, 75 and 90 min • Sampling volume 5 ml (discard the first 3 ml) • Test on 6 vessels • place the sample (50 mg) into each dissolution vessel
The non-corrected dissolved percentages were calculated as follows: […]
The corrected dissolved percentage were calculated as follows: […]

[2] = Particle size distribution measurement (WET method, laser diffraction, Mastersizer); assay type: physicochemical; conditions: PSD wet method, dispersant demineralised water, Triton X100
Source text: Particle size distribution (PSD), summarized by D10, D50 and D90 values, were obtained by using the WET method, the details of which are as follows: • Material used: • Equipment: Mastersizer 300 (hydro MV) • Dispersant: demineralised water • Surfactant: Triton X100 • No saturation • Operational parameters: • optical model: Particles type (MS3000 only) no-spherical • Mie: • refractive index of particles: 1.443 • absorption index of particles: 0.1 • refractive index of the dispersant: 1.33 • Measurement: • Measurement time: 10 seconds • Measurement time of the background: 10 seconds • Stirrer speed: 1200 rpm +/−400 • Obscuration range: 5-19% • Delay time measurement: 1-5 minutes • Model: standard • Analysis precision: normal • Sample preparation: • Weight about 100 mg of product in a glass beaker • Add 2-4 drops of surfactant • Complete with the dispersant until the 20 mL mark of the 50 mL graduated beaker • Shake for 3 seconds to 60 seconds • Put in the external ultrasound cell • Sonication duration: 2-3minutes
After the milling step 5, the milled sample thus obtained from example 4 was characterized by measurement of its particle size distribution (see table 3 below) according to the method as defined above.
For comparison purposes, the measurement of the particle size distribution has also been carried out for the native 8-chloro-N-(4-(trifluoromethoxy)phenyl)quinolin-2-amine (Form I) obtained from step 4 of example 4 above (i.e. product obtained from example 4 before milling).

[3] = listed as Native (not milled) compound

SMILES	solubility (percentage dissolved) at 45 min ([1]; 37° C., 45 min) [%]	solubility compared to the native compound (FIG. 2 dissolution profile) ([1]; milled at 8000 rpm vs native, 0.25% CTAB in 0.1 M HCl, 37° C.)	increase of solubility (percentage dissolved) of milled compound compared to the native compound at 45 min ([1]; same dissolution conditions, 45 min, milled (8000 rpm) vs native)	Particle size distribution D10 [2] [μm]	Particle size distribution D50 [2] [μm]	Particle size distribution D90 [2] [μm]	Particle size distribution D10 ([2]; listed as milled ABX464) [μm]	Particle size distribution D50 ([2]; listed as milled ABX464) [μm]	Particle size distribution D90 ([2]; listed as milled ABX464) [μm]	Particle size distribution D10 [2, 3] [μm]	Particle size distribution D50 [2, 3] [μm]	Particle size distribution D90 [2, 3] [μm]
FC(F)(F)Oc1ccc(Nc2ccc3cccc(Cl)c3n2)cc1 [milled compound, 8-chloro-N-(4-(trifluoromethoxy)phenyl)quinolin-2-amine]	95.4	improved solubility	about 38.1%	6.8	50.0	122.0	6.8	50.0	122.0			
FC(F)(F)Oc1ccc(Nc2ccc3cccc(Cl)c3n2)cc1 [native compound, 8-chloro-N-(4-(trifluoromethoxy)phenyl)quinolin-2-amine]	57.3									24.5	164.0	444.0
